Laboratory results published in patent US7056924B2, “Substituted heterocyclic compounds” (CV Therapeutics, Inc., priority 2002, dated 2006).

tested on: Palmitoyl CoA oxidation in rat heart mitochondria; assay: Mitochondrial assay: Palmitoyl CoA oxidation; format: biochemical; details: 16 microM 1-C14 palmitoyl CoA, 15 min at 30° C., read-out: Effect of Compounds of the Invention on Palmitoyl CoA Oxidation (IC50)
Experimental: Rat heart mitochondria were isolated by the method of Nedergard and Cannon (Methods in Enzymol. 55, 3, 1979).
Palmitoyl CoA oxidation—The Palmitoyl CoA oxidation was carried out in a total volume of 100 micro liters containing the following agents: 110 mM KCl, 33 mM Tris buffer at pH 8, 2 mM KPi, 2 mM MgCl2, 0.1 mM EDTA, 14.7 microM defatted BSA, 0.5 mM malic acid, 13 mM carnitine, 1 mM ADP, 52 micrograms of mitochondrial protein, and 16 microM 1-C14 palmitoyl CoA (Sp. Activity 60 mCi/mmole; 20 microCi/ml, using 5 microliters per assay). The compounds of this invention were added in a DMSO solution at the following concentrations: 100 micro molar, 30 micro molar, and 3 micro molar. In each assay, a DMSO control was used. After 15 min at 30° C., the enzymatic reaction was centrifuged (20,000 g for 1 min), and 70 microliters of the supernatant was added to an activated reverse phase silicic acid column (approximately 0.5 ml of silicic acid). The column was eluted with 2 ml of water, and 0.5 ml of the eluent was used for scintillation counting to determine the amount of C^14 trapped as C^14 bicarbonate ion.

For “(2R)-3-[(2S)-2-methyl-4-({5-[4-(trifluoromethyl)phenyl](1,2,4-oxadiazol-3-yl)}methyl)piperazinyl]-1-(2-methylbenzothiazol-5-yloxy)propan-2-ol”, which IC50 is on record?
Its IC50 is 250 nM.

With “(2R)-3-{(2S)-2-methyl-4-[(3-(2-thienyl)(1,2,4-oxadiazol-5-yl))methyl]piperazinyl}-1-(2-methylbenzothiazol-5-yloxy)propan-2-ol” as the substance, how does the IC50 read?
Its IC50 is 490 nM.

“(2R)-3-{(2S)-2-methyl-4-[(3-phenylisoxazol-5-yl)methyl]piperazinyl}-1-(2-methylbenzothiazol-5-yloxy)propan-2-ol” was tested. Which IC50 did it give?
The IC50 was 410 nM.

With “(2R)-3-{(2S)-2-methyl-4-[(5-phenylbenzoxazol-2-yl)methyl]piperazinyl}-1-(2-methylbenzothiazol-5-yloxy)propan-2-ol” as the substance, how does the IC50 read?
The IC50 was 2100 nM.

“(2R)-3-{(3S)-3-methyl-4-[(3-(4-methoxyphenyl)isoxazol-5-yl)methyl]piperazinyl}-1-(2-methylbenzothiazol-5-yloxy)propan-2-ol” was tested. Which IC50 did it give?
The IC50 was 740 nM.

With “(2R)-3-{(3S)-3-methyl-4-[(5-(2-chlorophenyl)isoxazol-3-yl)methyl]piperazinyl}-1-(2-methylbenzothiazol-5-yloxy)propan-2-ol” as the substance, how does the IC50 read?
The IC50 was 60 nM.

How did the IC50 turn out when “(2R)-3-{(3S)-3-methyl-4-[(5-(3,4-dichlorophenyl)isoxazol-3-yl)methyl]piperazinyl}-1-(2-methylbenzothiazol-5-yloxy)propan-2-ol” was run?
Its IC50 is 250 nM.

“(2R)-3-{(3S)-3-methyl-4-[(5-(4-chlorophenyl)isoxazol-3-yl)methyl]piperazinyl}-1-(2-methylbenzothiazol-5-yloxy)propan-2-ol” was tested. Which IC50 did it give?
The IC50 was 330 nM.
